The record followed here is patent EP4467154A1, “MEDICINE FOR TREATING OR PREVENTING CANCER” (CHUGAI SEIYAKU KABUSHIKI KAISHA, priority 2022, dated 2023).

Like-named read-outs stand apart in the source and are kept apart here. Bridge positions count the residues as written; N and C are the ends. Square brackets hold non-standard residues; d marks the D form. Peptide text beside a SMILES is read from it. hPhe(3,5-F2-4-CF3) = N[C@@H](CCc1cc(F)c(C(F)(F)F)c(F)c1)C(=O)O; NEtPhe(4-Me) = CCN[C@@H](Cc1ccc(C)cc1)C(=O)O; NMeGly(cPent) = CN[C@H](C(=O)O)C1CCCC1; NMeD = CN[C@@H](CC(=O)O)C(=O)O; NMeL = CN[C@@H](CC(C)C)C(=O)O; NMeA = CN[C@@H](C)C(=O)O; Ac5c = NC1(C(=O)O)CCCC1; Aze = O=C(O)[C@@H]1CCN1; Sar = CNCC(=O)O

One assay deals with NCI-H441. The experiment in a line: Cell growth inhibitory activity, ATP (CellTiter-Glo 2.0), isobologram (Example 2), NCI-H441. The class given is cell-based, Human. To be noted: set GI% 100%, 144 hours, test with RMC-4550. The method, then: (§1) Human cancer cell lines were seeded on a 384-well round bottom ultra-low attachment plate at a concentration of 750 cells per well and cultured in a 5% carbon gas incubator at 37°C. After 24 hours, CellTiter-Glo 2.0 (Promega Corporation) was added to part of the wells (3 wells), and the amount of ATP (V0) was determined using Envision plate readers (PerkinElmer Co., Ltd.). V0 was taken as the amount of ATP at time 0. DMSO alone or compound 1 and/or the compound for combined use each were added to another three wells. Compound 1 and the compound for combined use were used by serially diluting in 8 steps at a common ratio of 3 with 300 nM and 10 or 3000 nM taken as their respective highest concentrations. […] After culturing for 144 hours after addition of DMSO alone or compound 1 and/or the compound for combined use, the amount of ATP (T and V) was determined for the cells to which DMSO alone was added (DMSO-treated group) or the cells to which compound 1 and/or the compound for combined use was added (compound 1 and/or compound for combined use-treated group). […] The growth inhibition rate (Growth Inhibition %: GI%) was calculated using the following formulas. […] (1−(T−V0)/V0) × 100 [formula] (when T < V0) (1−(T−V0)/(V−V0)) × 100 [formula] […]
On the technique in general: In ATP-based viability assays light output follows the ATP content of the culture.

Assay [1] has as its system NCI-H358. Kind of assay: Cell growth inhibitory activity, ATP (CellTiter-Glo 2.0), isobologram (Example 2), NCI-H358. The class given is cell-based, Human. As to conditions: 144 hours. The method, then: as §1
Assay [2] concerns lung cancer line NCI-H1373 (KRAS-G12C). The experiment in a line: In vivo antitumor activity, NCI-H1373 xenograft model (Example 11). On the set-up: species or system Nude mice. As to conditions: compound 1 5 mg/kg orally once a day, TNO155 5 mg/kg orally twice a day, 35 days, Figure 19. The source says:
A xenograft model to which lung cancer line NCI-H1373 (KRAS-G12C) was transplanted was used to evaluate in vivo antitumor activity due to combined use of compound 1 and TNO155. Nude mice were subcutaneously transplanted with 5 × 10^6 cells per mouse, and when the tumor volume reached 200 to 300 mm^3, the nude mice were randomized and administration of compound 1 and/or the compound for combined use was started (n = 8). Compound 1 was orally administered once a day and TNO155 was orally administered twice a day for an administration period of 35 days. The doses of the agents were 5 mg/kg for compound 1 and 5 mg/kg for TNO155. Compound 1 was dissolved in 10% DMSO/5% Cremphor EL/85% Distilled water and TNO155 was dissolved in 0.5% Tween 80/0.5% methylcellulose/99% distilled water, and administered. From the tumor volume data on the last measurement day, the tumor growth inhibition rate (Tumor Growth Inhibition %: TGI%) was calculated using the following formulas. […] Tumor growth inhibition rate (TGI%) = (1−TV/CV) × 100 [formula] Tumor volume (mm^3) = 1/2 × major axis (mm) × minor axis (mm) × minor axis (mm) [formula] [formula] • TV: Mean of the amount of change in tumor volume in the compound 1 monotherapy group, the TNO155 monotherapy group, or the combined use group • CV: Mean of the amount of change in tumor volume in the vehicle group

Assay [3] relates to NCI-H358. As to conditions: read-out: set GI concentration (concentration as a single drug giving GI 50), set GI% 50%, 144 hours, test with trametinib. The method, then: as §1
The subject of assay [4] is lung cancer line NCI-H441 (KRAS-G12C). Kind of assay: In vivo antitumor activity, NCI-H441 xenograft model (Example 12). On the set-up: species or system Nude mice. As to conditions: compound 1 3 mg/kg or 5 mg/kg, compound 2 0.25 mg/kg, orally once a day, 14 days, Figure 20. The method, then:
(§2) A xenograft model to which lung cancer line NCI-H441 (KRAS-G12C) or NCI-H1373 (KRAS-G12C) was transplanted was used to evaluate in vivo antitumor activity due to combined use of compound 1 and compound 2. Nude mice were subcutaneously transplanted with 5 × 10^6 cells per mouse, and when the tumor volume reached 200 to 300 mm^3, randomization was performed and administration of compound 1 and/or the compound for combined use was started (n = 5). Compound 1 and compound 2 were orally administered once a day for an administration period of 14 days. The doses of the agents were 3 mg/kg or 5 mg/kg for compound 1 and 0.25 mg/kg for compound 2. Compound 1 was dissolved in 10% DMSO/5% Cremphor EL/85% Distilled water and compound 2 was dissolved in 10% DMSO/10% Cremphor EL/15% PEG400/15% HPBCD/50% distilled water, and administered. From the tumor volume data on the last measurement day, the tumor growth inhibition rate (Tumor Growth Inhibition %: TGI%) was calculated using the following formulas. […] Tumor growth inhibition rate (TGI%) = (1−TV/CV) × 100 [formula] Tumor volume (mm^3) = 1/2 × major axis (mm) × minor axis (mm) × minor axis (mm) [formula] [formula] • TV: Mean of the amount of change in tumor volume in the compound 1 monotherapy group, the compound 2 monotherapy group, or the combined use group • CV: Mean of the amount of change in tumor volume in the vehicle group

The next assay has as its system NCI-H1373 (KRAS-G12C). The experiment in a line: In vivo antitumor activity, NCI-H1373 xenograft model (Example 12). On the set-up: species or system Nude mice. To be noted: compound 1 3 mg/kg or 5 mg/kg, compound 2 0.25 mg/kg, orally once a day, 14 days, Figure 21. The method, then: as §2

With `Cc1nc(N2CCC3(CC2)CO[C@@H](C)[C@H]3N)c(CO)nc1-c1cccc(Cl)c1Cl` [RMC-4550, 3-[(3S,4S)-4-amino-3-methyl-2-oxa-8-azaspiro[4.5]deca-8-yl]-6-(2,3-dichlorophenyl)-5-methyl-2-pyrazinemethanol], the “set GI concentration (concentration as a single drug giving GI 100)” value in the assay on NCI-H441 is 0.35 µM. Further, the “set GI concentration (concentration as a single drug giving GI 155)” value in the assay on NCI-H358 [1] (set GI% 155%, test with RMC-4550) is reported as 0.55 µM.

Turning to `C[C@@H]1OCC2(CCN(c3cnc(Sc4ccnc(N)c4Cl)c(N)n3)CC2)[C@@H]1N` [TNO155, (3S,4S)-8-(6-amino-5-((2-amino-3-chloropyridine-4-yl)thio)pyrazine-2-yl)-3-methyl-2-oxa-8-azaspiro[4.5]decane-4-amine], in assay [2], the “tumor volume, compared with vehicle group” value is on record as “increase in tumor volume suppressed”.

For `CC[C@H](C)[C@@H]1NC(=O)[C@H](CC(C)C)N(C)C(=O)C[C@@H](C(=O)N(C)C)N(C)C(=O)[C@H](C2CCCC2)N(C)C(=O)C2(CCCC2)NC(=O)[C@@H]2CCCN2C(=O)[C@H](CCc2cc(F)c(C(F)(F)F)c(F)c2)NC(=O)CN(C)C(=O)[C@H](Cc2ccc(C)cc2)N(CC)C(=O)[C@@H]2CCN2C(=O)[C@H](C)N(C)C1=O` [compound 1, (5S,8S,11S,15S,18S,23aS,29S,35S,37aS)-8-((S)-sec-butyl)-18-cyclopentyl-29-(3,5-difluoro-4-(trifluoromethyl)phenethyl)-36-ethyl-11-isobutyl-N,N,5,6,12,16,19,33-octamethyl-35-(4-methylbenzyl)-4,7,10,13,17,20,23,28,31,34,37-undecaoxotetratriacontahydro-2H,4H-spiro[azeto[2,1-u]pyrrolo[2,1-i][1,4,7,10,13,16,19,22,25,28,31]undecaazacyclotetratriacontyne-21,1'-cyclopentane]-15-carboxamide] ([NMeL]I[NMeA][Aze][NEtPhe(4-Me)][Sar][hPhe(3,5-F2-4-CF3)]P[Ac5c][NMeGly(cPent)][NMeD]-NMe2; lactam N-11), the GI50 in the assay on NCI-H358 [3] turned out to be 4.6 nM.

For `CNS(=O)(=O)Nc1nccc(Cc2cc(C(N)=O)c(Nc3ccc(C4CC4)cc3F)c(F)c2F)c1F` [compound 2, 2-(4-cyclopropyl-2-fluoro-anilino)-3,4-difluoro-5-[[3-fluoro-2-(methylsulfamoylamino)-4-pyridyl]methyl]benzamide], the “tumor volume, compared with vehicle group” value (in assay [4]; in the assay on NCI-H1373 (KRAS-G12C)) was “increase in tumor volume suppressed” in each case.

For `CC(=O)Nc1cccc(-n2c(=O)n(C3CC3)c(=O)c3c(Nc4ccc(I)cc4F)n(C)c(=O)c(C)c32)c1` [trametinib, N-[3-[3-cyclopropyl-5-(2-fluoro-4-iodo-phenylamino)-6,8-dimethyl-2,4,7-trioxo-3,4,6,7-tetrahydro-2H-pyrido[4,3-d]pyrimidine-1-yl]phenyl]acetamide], the GI50 in the assay with NCI-H358 [1] (Homo sapiens, set GI% 50%, single drug, test with trametinib, read-out: set GI concentration (concentration as a single drug giving GI 50)) worked out at 0.35 nM.
